Measured values: patent US9624208B2, “Benzoxazolinone compounds with selective activity in voltage-gated sodium channels” (Merck Sharp & Dohme Corp., priority 2012, dated 2017)
pIC50: −log10 of the molar value.

Legend:
human Nav1.7 = target: T1, human Nav1.7 (Homo sapiens, UniProt Q15858); test: PatchXpress sodium current measurement, inactivated state block, Nav1.7; type: cell-based; conditions: channels stably expressed in HEK 293 cells, double-pulse protocol, 22° C., read-out: potency for the Nav 1.7 sodium ion channel (1.7=)
T1 construct: expressed in transfected cells
Procedure: (§1) Cell Based Assays for Nav 1.7 and Nav 1.5 Activity
(§2) Compounds were tested on human Nav1.7 and Nav1.5 channels stably expressed in HEK 293 cells.
(§3) Sodium Current Measurements on the PatchXpress 7000:
(§4) To measure inactivated state block of sodium channels, test compounds were characterized in an automated PatchXpress® assay (Molecular Devices) using a double-pulse protocol on human Nav1.7 and Nav1.5 channels stably expressed in HEK 293 cells. Cells were held at a potential 20 mV negative to the potential at which ˜50% of the channels are inactivated. A 8000 ms pre-pulse 7 mV positive to the potential at which ˜50% of the channels are inactivated was given followed by a hyperpolarizing 2 ms pulse to −120 mV and a 20 ms test pulse to −20 mV. The protocol was applied to cells in the absence, presence of compound and after washout. The temperature of PatchXpress® instruments was maintained at 22° C. The following recording solutions were used. Internal solution (mM): 30 CsCl, 5 HEPES, 10 EGTA, 120 CsF, 5 NaF, 2 MgCl2, pH 7.3 with CsOH. External solution (mM): 120 NMDG, 40 NaCl, 1 KCl, 0.5 MgCl2, 5 HEPES, 2.7 CaCl2, pH 7.5 with NMDG-OH. Estimated IC50 values were calculated based on at least two compound concentrations tested. For all electrophysiology experiments, offline analysis was used to correct for current rundown and to determine percent inhibition as a function of drug concentration. IC50 values were determined by fitting to the Hill equation.

human Nav1.5 = target: T2, human Nav1.5 (Homo sapiens, UniProt Q14524); test: PatchXpress sodium current measurement, inactivated state block, Nav1.5; type: cell-based; conditions: determined by PatchXpress measurement, HEK 293 cells
T2 construct: expressed in transfected cells
Procedure: as §1, §2, §3, §4

T1 sequence (Q15858 whole entry): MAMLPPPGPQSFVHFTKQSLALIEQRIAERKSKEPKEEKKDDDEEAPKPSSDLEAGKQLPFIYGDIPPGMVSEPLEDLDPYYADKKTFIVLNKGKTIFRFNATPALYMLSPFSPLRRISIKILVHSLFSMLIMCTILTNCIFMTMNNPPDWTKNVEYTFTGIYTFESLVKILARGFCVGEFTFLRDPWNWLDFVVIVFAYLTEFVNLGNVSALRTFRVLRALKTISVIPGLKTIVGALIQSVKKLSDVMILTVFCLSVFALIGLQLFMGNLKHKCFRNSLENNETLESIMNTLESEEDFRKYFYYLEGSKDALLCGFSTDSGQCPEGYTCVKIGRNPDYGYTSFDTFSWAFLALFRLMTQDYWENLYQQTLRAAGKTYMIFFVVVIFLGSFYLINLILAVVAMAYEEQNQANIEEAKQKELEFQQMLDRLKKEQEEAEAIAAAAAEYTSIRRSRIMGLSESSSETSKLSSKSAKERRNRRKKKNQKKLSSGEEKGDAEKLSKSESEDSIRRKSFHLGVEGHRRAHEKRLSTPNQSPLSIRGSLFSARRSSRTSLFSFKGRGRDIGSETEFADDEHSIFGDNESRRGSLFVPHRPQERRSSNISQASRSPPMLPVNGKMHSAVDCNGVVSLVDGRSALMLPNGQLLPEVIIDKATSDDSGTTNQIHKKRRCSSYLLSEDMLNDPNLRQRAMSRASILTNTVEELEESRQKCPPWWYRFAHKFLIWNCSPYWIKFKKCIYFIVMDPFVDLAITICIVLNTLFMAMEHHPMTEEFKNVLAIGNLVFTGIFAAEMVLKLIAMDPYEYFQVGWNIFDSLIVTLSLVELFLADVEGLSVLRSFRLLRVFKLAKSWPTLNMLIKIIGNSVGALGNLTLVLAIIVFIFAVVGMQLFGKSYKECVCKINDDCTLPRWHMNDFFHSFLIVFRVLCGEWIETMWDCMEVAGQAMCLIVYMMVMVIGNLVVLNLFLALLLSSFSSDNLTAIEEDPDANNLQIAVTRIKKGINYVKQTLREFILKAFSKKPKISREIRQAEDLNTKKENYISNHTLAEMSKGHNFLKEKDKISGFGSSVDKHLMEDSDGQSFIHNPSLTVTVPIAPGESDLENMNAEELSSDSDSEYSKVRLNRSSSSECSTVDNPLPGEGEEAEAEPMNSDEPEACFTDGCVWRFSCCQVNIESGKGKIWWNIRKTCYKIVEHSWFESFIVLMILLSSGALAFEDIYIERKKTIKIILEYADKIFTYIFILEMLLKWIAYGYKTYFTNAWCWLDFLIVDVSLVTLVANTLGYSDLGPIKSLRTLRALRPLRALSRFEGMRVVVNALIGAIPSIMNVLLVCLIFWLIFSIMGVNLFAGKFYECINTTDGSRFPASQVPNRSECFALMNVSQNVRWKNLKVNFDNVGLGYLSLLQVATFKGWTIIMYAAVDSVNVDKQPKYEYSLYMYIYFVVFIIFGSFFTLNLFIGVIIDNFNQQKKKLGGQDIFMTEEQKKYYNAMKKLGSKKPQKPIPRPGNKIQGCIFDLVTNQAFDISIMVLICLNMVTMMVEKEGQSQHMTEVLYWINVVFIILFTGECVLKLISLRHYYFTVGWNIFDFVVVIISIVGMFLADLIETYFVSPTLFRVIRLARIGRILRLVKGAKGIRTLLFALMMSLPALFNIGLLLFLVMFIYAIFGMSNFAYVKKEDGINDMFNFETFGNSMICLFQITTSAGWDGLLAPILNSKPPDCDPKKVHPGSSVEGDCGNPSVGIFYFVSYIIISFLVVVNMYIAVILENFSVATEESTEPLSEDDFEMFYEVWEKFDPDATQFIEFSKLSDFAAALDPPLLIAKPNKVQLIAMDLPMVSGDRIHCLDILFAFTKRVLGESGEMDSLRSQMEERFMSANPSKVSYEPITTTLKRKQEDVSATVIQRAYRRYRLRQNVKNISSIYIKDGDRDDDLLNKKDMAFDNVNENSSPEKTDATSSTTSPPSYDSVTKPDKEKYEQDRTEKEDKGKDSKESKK
T2 sequence (Q14524 whole entry): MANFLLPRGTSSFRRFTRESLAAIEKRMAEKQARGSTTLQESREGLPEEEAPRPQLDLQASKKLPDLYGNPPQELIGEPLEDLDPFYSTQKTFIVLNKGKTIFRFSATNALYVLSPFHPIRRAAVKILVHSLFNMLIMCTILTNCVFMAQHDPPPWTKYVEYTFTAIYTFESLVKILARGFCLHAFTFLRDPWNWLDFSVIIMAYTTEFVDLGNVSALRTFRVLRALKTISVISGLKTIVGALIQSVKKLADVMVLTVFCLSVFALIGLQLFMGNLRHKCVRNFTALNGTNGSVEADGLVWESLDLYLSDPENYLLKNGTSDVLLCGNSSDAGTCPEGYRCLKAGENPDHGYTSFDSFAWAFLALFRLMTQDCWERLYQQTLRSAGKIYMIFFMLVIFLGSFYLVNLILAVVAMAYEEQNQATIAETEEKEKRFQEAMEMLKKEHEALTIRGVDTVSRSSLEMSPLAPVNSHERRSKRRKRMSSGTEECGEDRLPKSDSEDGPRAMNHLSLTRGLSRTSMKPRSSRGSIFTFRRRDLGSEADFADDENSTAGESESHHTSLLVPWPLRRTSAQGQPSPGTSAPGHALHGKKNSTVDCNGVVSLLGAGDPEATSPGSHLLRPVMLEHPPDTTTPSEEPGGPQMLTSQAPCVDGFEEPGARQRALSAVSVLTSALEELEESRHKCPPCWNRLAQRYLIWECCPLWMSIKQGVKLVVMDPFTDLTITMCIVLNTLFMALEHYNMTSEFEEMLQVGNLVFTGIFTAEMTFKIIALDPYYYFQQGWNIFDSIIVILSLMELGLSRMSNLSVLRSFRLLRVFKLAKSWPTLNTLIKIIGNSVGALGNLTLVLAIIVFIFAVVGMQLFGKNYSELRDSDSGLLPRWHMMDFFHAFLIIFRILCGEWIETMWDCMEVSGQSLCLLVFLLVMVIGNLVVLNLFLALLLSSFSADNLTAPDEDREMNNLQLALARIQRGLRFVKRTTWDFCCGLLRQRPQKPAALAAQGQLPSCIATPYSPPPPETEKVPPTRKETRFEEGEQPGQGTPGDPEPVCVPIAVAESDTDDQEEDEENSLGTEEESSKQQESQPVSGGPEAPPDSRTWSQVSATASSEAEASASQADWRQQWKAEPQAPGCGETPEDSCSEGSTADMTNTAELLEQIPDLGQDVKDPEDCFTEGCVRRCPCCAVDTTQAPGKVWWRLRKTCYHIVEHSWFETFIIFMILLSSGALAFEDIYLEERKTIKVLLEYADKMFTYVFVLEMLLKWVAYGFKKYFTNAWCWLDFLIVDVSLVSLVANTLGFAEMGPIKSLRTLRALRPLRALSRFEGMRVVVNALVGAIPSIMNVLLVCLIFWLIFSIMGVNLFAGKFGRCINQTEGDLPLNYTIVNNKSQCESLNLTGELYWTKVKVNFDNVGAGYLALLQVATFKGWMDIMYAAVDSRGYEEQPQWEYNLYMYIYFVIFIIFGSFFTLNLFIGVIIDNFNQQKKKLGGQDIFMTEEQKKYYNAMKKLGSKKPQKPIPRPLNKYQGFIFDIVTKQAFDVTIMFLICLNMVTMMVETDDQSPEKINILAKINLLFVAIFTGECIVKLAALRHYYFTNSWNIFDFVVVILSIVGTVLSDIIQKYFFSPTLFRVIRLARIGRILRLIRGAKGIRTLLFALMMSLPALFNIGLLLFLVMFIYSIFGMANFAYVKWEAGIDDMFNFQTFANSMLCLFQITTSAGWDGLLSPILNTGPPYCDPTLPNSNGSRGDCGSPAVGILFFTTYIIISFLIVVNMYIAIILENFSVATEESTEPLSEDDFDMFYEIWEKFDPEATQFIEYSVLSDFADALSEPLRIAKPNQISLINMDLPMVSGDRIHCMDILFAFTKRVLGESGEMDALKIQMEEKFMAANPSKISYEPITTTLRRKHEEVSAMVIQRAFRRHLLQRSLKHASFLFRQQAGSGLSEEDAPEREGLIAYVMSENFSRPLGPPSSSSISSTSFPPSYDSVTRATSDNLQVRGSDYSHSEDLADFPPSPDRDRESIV

Structure (SMILES)	pIC50 (human Nav1.7)	ratio of Nav 1.5:Nav 1.7 potency (human Nav1.5)
Cc1cc2c(cc1S(=O)(=O)Nc1cccc(F)n1)oc(=O)n2Cc1cccc2c1CC(N)CC2 (single isomer, unassigned) [Ex17-5, (R or S)-3-[(7-amino-5,6,7,8-tetrahydronaphthalen-1-yl)methyl]-N-(6-fluoropyridin-2-yl)-5-methyl-2-oxo-2,3-dihydro-1,3-benzoxazole-6-sulfonamide]	7.62	310
C[C@H](c1cccc(CCN)c1)n1c(=O)oc2cc(S(=O)(=O)Nc3cccc(F)n3)c(F)cc21 [Ex19-11, 3-{(1R)-1-[3-(2-aminoethyl)phenyl]ethyl}-5-fluoro-N-(6-fluoropyridin-2-yl)-2-oxo-2,3-dihydro-1,3-benzoxazole-6-sulfonamide]	6.99	244
C[C@H](c1ccccc1C1CNC1)n1c(=O)oc2cc(S(=O)(=O)Nc3cccc(F)n3)c(F)cc21 [Ex10-3, (R)-3-(1-(2-(Azetidin-3-yl)phenyl)ethyl)-5-fluoro-N-(6-fluoropyridin-2-yl)-2-oxo-2,3-dihydrobenzo[d]oxazole-6-sulfonamide]	7.41	1306
CC(N)C#Cc1cccc([C@@H](C)n2c(=O)oc3cc(S(=O)(=O)Nc4cccc(F)n4)c(F)cc32)c1 (stereo partly drawn) [Ex21-5, 3-{(1R)-1-[3-(3-aminobut-1-yn-1-yl)phenyl]ethyl}-5-fluoro-N-(6-fluoropyridin-2-yl)-2-oxo-2,3-dihydro-1,3-benzoxazole-6-sulfonamide]	6.05	34
C[C@H](c1cccc(CN)c1)n1c(=O)oc2cc(S(=O)(=O)Nc3cccc(F)n3)c(F)cc21 [Ex19-5, 3-{(1R)-1-[3-(aminomethyl)phenyl]ethyl}-5-fluoro-N-(6-fluoropyridin-2-yl)-2-oxo-2,3-dihydro-1,3-benzoxazole-6-sulfonamide]	6.32	96
C[C@H](c1ccccc1C#C[C@H]1CCCC[C@@H]1N)n1c(=O)oc2cc(S(=O)(=O)Nc3cccc(F)n3)c(F)cc21 (mixture of isomers) [Ex8-5, 3-[(1R)-1-(2-{[(1R,2S and 1S, 2R)-2-aminocyclohexyl]ethynyl}phenyl)ethyl]-5-fluoro-N-(6-fluoropyridin-2-yl)-2-oxo-2,3-dihydro-1,3-benzoxazole-6-sulfonamide]	7.60	714
Cc1cc2c(cc1S(=O)(=O)Nc1cccc(F)n1)oc(=O)n2[C@H](C)c1cccc(C#CCN)c1C [Ex21-24, 3-{(1R)-1-[3-(3-aminoprop-1-yn-1-yl)-2-methylphenyl]ethyl}-N-(6-fluoropyridin-2-yl)-5-methyl-2-oxo-2,3-dihydro-1,3-benzoxazole-6-sulfonamide]	6.99	240
Cc1cccc([C@@H](C)n2c(=O)oc3cc(S(=O)(=O)Nc4cccc(F)n4)c(F)cc32)c1C1CCCN1 (stereo partly drawn) [Ex20-2, 5-fluoro-N-(6-fluoropyridin-2-yl)-3-{(1R)-1-[3-methyl-2-(pyrrolidin-2-yl)phenyl]ethyl}-2-oxo-2,3-dihydro-1,3-benzoxazole-6-sulfonamide]	7.46	272
NC1CCc2cccc(Cn3c(=O)oc4cc(S(=O)(=O)Nc5cccc(F)n5)ccc43)c2C1 (single isomer, unassigned) [Ex13-6, (S or R)-3-[(7-amino-5,6,7,8-tetrahydronaphthalen-1-yl)methyl]-N-(6-fluoropyridin-2-yl)-2-oxo-2,3-dihydro-1,3-benzoxazole-6-sulfonamide]	6.83	43
O=c1oc2cc(S(=O)(=O)Nc3cccc(F)n3)c(F)cc2n1Cc1cccc2c1CNCC2F (single isomer, unassigned; enantiomer 1) [Ex5-10, (R or S)-5-fluoro-N-(6-fluoropyridin-2-yl)-3-[(4-fluoro-1,2,3,4-tetrahydroisoquinolin-8-yl)methyl]-2-oxo-2,3-dihydro-1,3-benzoxazole-6-sulfonamide (enantiomer 1)]	6.02	> 31
C[C@H](c1cccc(C#CC2CCCN2)c1)n1c(=O)oc2cc(S(=O)(=O)Nc3cccc(F)n3)c(F)cc21 (stereo partly drawn) [Ex21-10, 5-fluoro-N-(6-fluoropyridin-2-yl)-2-oxo-3-{(1R)-1-[3-(pyrrolidin-2-ylethynyl)phenyl]ethyl}-2,3-dihydro-1,3-benzoxazole-6-sulfonamide]	6.47	88
O=c1oc2cc(S(=O)(=O)Nc3cccc(F)n3)c(F)cc2n1C1CCCc2ccc(F)cc21 (centres unmarked) [Ex4-5, 5-fluoro-N-(6-fluoropyridin-2-yl)-3-(7-fluoro-1,2,3,4-tetrahydronaphthalen-1-yl)-2-oxo-2,3-dlihydro-1,3-benzoxazole-6-sulfonamide]	6.19	101

The remaining molecules from weak to strong by pIC50 (human Nav1.7), led by results:

pIC50 (human Nav1.7)	Structure (SMILES)	ratio of Nav 1.5:Nav 1.7 potency (human Nav1.5)
6.29	CCN(CC)CC#Cc1cccc([C@@H](C)n2c(=O)oc3cc(S(=O)(=O)Nc4cccc(F)n4)c(F)cc32)c1 [Ex21-15, 3-[(1R)-1-{3-[3-(diethylamino)prop-1-yn-1-yl]phenyl}ethyl]-5-fluoro-N-(6-fluoropyridin-2-yl)-2-oxo-2,3-dihydro-1,3-benzoxazole-6-sulfonamide]	58
6.56	C[C@H](c1ccccc1C#CCN(C)C)n1c(=O)oc2cc(S(=O)(=O)Nc3cccc(F)n3)c(F)cc21 [Ex8-9, 3-[(1R)-1-{2-[3-(dimethylamino)prop-1-yn-1-yl]phenyl}ethyl]-5-fluoro-N-(6-fluoropyridin-2-yl)-2-oxo-2,3-dihydro-1,3-benzoxazole-6-sulfonamide]	99
6.65	C[C@H](c1cccc(C#CC2(N)CCCCC2)c1)n1c(=O)oc2cc(S(=O)(=O)Nc3cccc(F)n3)c(F)cc21 [Ex21-4, 3-[(1R)-1-{3-[(1-aminocyclohexyl)-ethynyl]phenyl}ethyl]-5-fluoro-N-(6-fluoropyridin-2-yl)-2-oxo-2,3-dihydro-1,3-benzoxazole-6-sulfonamide]	45
6.94	C[C@H](c1cccc(C#CCN2CCC2)c1)n1c(=O)oc2cc(S(=O)(=O)Nc3cccc(F)n3)c(F)cc21 [Ex21-13, 3-[(1R)-1-{3-[3-(azetidin-1-yl)prop-1-yn-1-yl]phenyl}ethyl]-5-fluoro-N-(6-fluoropyridin-2-yl)-2-oxo-2,3-dihydro-1,3-benzoxazole-6-sulfonamide]	258
7.00	C[C@H](c1cccc2c1CNCC2)n1c(=O)oc2cc(S(=O)(=O)Nc3cccc(F)n3)c(F)cc21.Cl [Ex3-5, (R)-5-fluoro-N-(6-fluoropyridin-2-yl)-2-oxo-3-(1-(1,2,3,4-tetrahydroisoquinolin-8-yl)ethyl)-2,3-dihydrobenzo[d]oxazole-6-sulfonamide hydrochloride]	158
7.01	C[C@H](c1ccccc1C1CCCN1)n1c(=O)oc2cc(S(=O)(=O)Nc3cccc(F)n3)c(F)cc21 (stereo partly drawn) [Ex20-1, 5-fluoro-N-(6-fluoropyridin-2-yl)-2-oxo-3-{(1R)-1-[2-(pyrrolidin-2-yl)phenyl]ethyl}-2,3-dihydro-1,3-benzoxazole-6-sulfonamide]	120
7.05	Cc1cc2c(cc1S(=O)(=O)Nc1cccc(F)n1)oc(=O)n2[C@H](C)c1cccc(C#CCN)c1 [Ex21-23, 3-{(1R)-1-[3-(3-aminoprop-1-yn-1-yl)phenyl]ethyl}-N-(6-fluoropyridin-2-yl)-5-methyl-2-oxo-2,3-dihydro-1,3-benzoxazole-6-sulfonamide]	251
7.17	C[C@H](c1cccc(C#C[C@@H]2CCCC[C@@H]2N)c1)n1c(=O)oc2cc(S(=O)(=O)Nc3cccc(F)n3)c(F)cc21 [Ex21-17, 3-[(1R)-1-(3-{[(1S,2S)-2-aminocyclohexyl]ethynyl}phenyl)ethyl]-5-fluoro-N-(6-fluoropyridin-2-yl)-2-oxo-2,3-dihydro-1,3-benzoxazole-6-sulfonamide]	41
7.24	Cc1cc2c(cc1S(=O)(=O)Nc1cccc(F)n1)oc(=O)n2[C@H](C)c1cccc(Br)c1 [Ex18-6, 3-[(1R)-1-(3-bromophenyl)ethyl]-N-(6-fluoropyridin-2-yl)-5-methyl-2-oxo-2,3-dihydro-1,3-benzoxazole-6-sulfonamide]	30
7.39	C[C@H](c1ccccc1C1=CCNCCC1)n1c(=O)oc2cc(S(=O)(=O)Nc3cccc(F)n3)c(F)cc21 [Ex7-7, 5-fluoro-N-(6-fluoropyridin-2-yl)-2-oxo-3-{(1R)-1-[2-(2,5,6,7-tetrahydro-1H-azepin-4-yl)phenyl]ethyl}-2,3-dihydro-1,3-benzoxazole-6-sulfonamide]	239
